From US20090062208A1, “Methods for maintaining blood-brain barrier integrity in hypertensive subjects using a delta-PKC inhibitor” (priority 2007, published 2009)

Experiments:
middle cerebral arteries = conditions: DS rats; Payne and Smeda 2002; cited from earlier work
[1] = tested on: zonula occludens 1 (ZO-1), and occludin; test: Immunoblot analysis of blood brain barrier-related proteins; format: in vivo, rat; conditions: hypertensive DS rats
Procedure: (§1) The rats were subcutaneously infused (i.e., treated) with a saline solution, a control TAT peptide (YGRKKRRQRRR, SEQ ID NO:85), or the peptide inhibitor δV1-1 (SFNSYELGSL, SEQ ID NO: 1) attached via an N-terminal disulfide bond to TAT peptide (YGRKKRRQRRR-CC-SFNSYELGSL, SEQ ID NO:89), at a rate of 5.0 μL/hour, using an osmotic minipump. Treatment began at 11 weeks of age and survival rate and neurological deficits were recorded through week 15. Blood pressure was measured bi-weekly and blood-brain barrier disruption was assessed at 13 weeks by measuring Evans Blue dye extravasation. Proteomic analysis of brain samples was carried out to identify differences in the brains of control TAT peptide and δV1-1-treated animals. Blood brain barrier-related proteins were evaluated by immunoblot analysis.

transferrin and actin = test: Proteomic analysis of brain samples; format: in vivo, rat; conditions: brain samples taken at 13 weeks of age, continuous administration
Procedure: (§2) As detailed in Example 1, Dahl salt-sensitive (DS) rats, which are a model for hypertension in humans, were used to evaluate the efficacy of δPKC inhibitor treatment. The animals were initially maintained on a low-salt (0.3% NaCl) diet then switched to a high-salt (8% NaCl) to induce hypertension. The rats were subcutaneously treated with either a saline solution, a control peptide (TAT, SEQ ID NO:85), or a δPKC peptide inhibitor. Blood pressure was measured bi-weekly and blood-brain barrier (BBB) disruption was assessed at the end of the treatment period. Proteomic analysis of brain samples was carried out to identify differences in the brains of control TAT peptide and δV1-1-treated animals.
as §1, with “Proteomic analysis of brain samples was carried out to identify differences in the brains of control TAT peptide and δV1-1-treated animals.” left out

blood-brain barrier = test: Blood-brain barrier disruption by Evans Blue dye extravasation; format: in vivo, rat; conditions: hypertensive DS rats, at 13 weeks, n=6, p<0.01
Procedure: as §2
as §1, with “Proteomic analysis of brain samples was carried out to identify differences in the brains of control TAT peptide and δV1-1-treated animals.” left out

[2] = tested on: Dahl salt-sensitive (DS) rats; test: Hypertension-induced stroke in Dahl salt-sensitive rats on high-salt diet (blood pressure, stroke incidence); format: in vivo, rat; conditions: hypertensive DS rats; for blood pressure: subcutaneous infusion by osmotic minipump, versus control TAT peptide
Procedure: as §2
Male Dahl salt-sensitive (DS) rats were maintained on a low-salt (0.3% NaCl) diet until 6 weeks of age. The animals were then switched to a high-salt (8% NaCl) diet until 15 weeks of age. The animals were monitored daily for symptoms of systemic hypertension.
as §1

Row | Molecule | middle cerebral artery constriction in response to elevated blood pressure (middle cerebral arteries) | hypertension-induced redistribution of tight junction-related proteins ZO-1 and occludin [1] | increased levels of transferrin and actin in brain samples (transferrin and actin) | Evans Blue extravasation into the brain parenchyma (blood-brain barrier) | incidence of stroke (and stroke-associated symptoms) ([2]; relative to the TAT control group, n=24, p<0.01) | blood pressure ([2]; listed as δPKC inhibitor) | blood pressure ([2]; listed as δV1-1 peptide)
1 | bisindolylmaleimide | inhibited constriction | – | – | – | – | – | –
2 | YGRKKRRQRRR-CC-SFNSYELGSL [δV1-1] | – | blocked | attenuated | reduced | significantly decreased | similar | identical
3 | COc1ccc2c(c[n+](C)c3c4cc5c(cc4ccc23)OCO5)c1OC [chelerythrine] | inhibited constriction | – | – | – | – | – | –
